Columns and labels:
[1] = tested on: acetyl tubulin in H9c2 cells; experiment: Effect on acetyl tubulin in H9c2 cells (western blot); format: cell-based, Rat; details: treated for each concentration, four hours at 37° C., western blot vs GAPDH (FIGS. 1 and 2)
Protocol: H9c2 (2.0×10^5 cells/well, Rat, heart, myoblast) cells were seeded in a six-well plate and treated with drugs (compounds 43, 295, 296, 40, 239, and 285) for each concentration. In four hours later at 37° C., proteins were extracted with lysis buffer and quantified by Bradford method. […] of proteins were dissolved in sample buffer, electrophoresed on 4-12% gradient gel, transferred to a nitrocellulose membrane for seven minutes, and blocked in 3% BSA solution for one hour. Anti-acetyl tubulin (1:1,000) and GAPDH (1:2,000) were added to a 3% BSA solution, after which the membrane was immersed therein and reacted at 4° C. for 10 hours, and then washed three times with 1×TBST for 10 minutes each. IgG-HRP antibody (1:5,000) was added to 5% BSA, after which the membrane was immersed therein and reacted at room temperature for one hour, and then washed three times with 1×TBST for 10 minutes each.

[2] = tested on: iPSC-CM myocardial cells derived from patients with dilated cardiomyopathy (DCMP) heart failure; experiment: Ca2+ transient activity in DCMP iPSC-CM accompanied by TPM1 mutation; format: cell-based, human; details: 0.1-3 μM for 24 hours, 3 Hz stimulation 24 hours, Fluo-4 (FIG. 9)
Protocol: In order to confirm the effect of the compound according to the present disclosure on preventing or treating heart failure disease, Ca^2+ transients in iPSC-CM myocardial cells derived from patients with dilated cardiomyopathy (DCMP) heart failure were analyzed.
Myocardial cells derived from patients with heart failure were treated with compound 43 (Synthesis Example 1) for each concentration for 24 hours. After that, 3 Hz stimulation was given to both iPSC-CM myocardial cells derived from normal people (normal group, Normal) and iPSC-CM myocardial cells derived from patients with dilated cardiomyopathy (DCMP) heart failure for 24 hours in heart damage mimicking conditions (Tachycardia pacing). After each group was treated with Fluo-4 (AM, cell permeant-Thermo Fisher Scientific), a cell-permeable calcium dye, Ca^2+ images were taken in real time with a confocal microscope, so as to compare and analyze Ca^2+ transients between groups. Then, the results of the cells obtained from normal people are shown in FIG. 8, while the results of the cells obtained from patients with DCMP heart failure are shown in FIG. 9. Normal in above FIG. 8 may refer to myocardial cells not treated with Tachycardia pacing, and 0, 0.1, 1 and 3 in FIGS. 8 and 9 may represent the concentrations of compound 43 (compound of Synthesis Example 1) in cells treated with Tachycardia pacing. […]

[3] = tested on: beagle dogs with induced heart disease; experiment: Anti-fibrotic activity in tachycardia pacing heart disease model (western blot of cardiac tissue); format: in vivo, beagle dog; details: 1 mg/kg capsule, Bid, P.O.; tachycardia pacing 400 bpm; compared to group not dosed (FIG. 7)
Protocol: For the introduction of anesthetic to the beagle dogs (male, 11 months old), pentobarbital (25 mg/kg) was intravenously administered thereto, and anesthesia was maintained through Isoflurane. A pacemaker's in vivo implantable electrode (bipolar pacing lead, Medtronic, IRE) was placed in the right atrial appendage by using C-arm (ARCADIS Varic, SIEMENS Co.) equipment and vascular contrast media, and then it was checked if the same was correctly inserted through a contrast image, and then the pacemaker's lead was fixed in the right atrial appendage. After stabilization for one week after surgery, the pacemaker was operated at 400 bpm to confirm normal induction by electrocardiography, and then tachycardia pacing was induced. Hemodynamic parameters for each group were measured. […]
In order to confirm the effect of the compound according to the present disclosure on preventing or treating heart failure disease, the expression of α-SMA and TGF-β, which are directly related to fibrosis in cardiac tissues, was analyzed. […] The expression of α-SMA and TGF-β was analyzed for each protein through western blot, so as to compare the degree of cardiac fibrosis between groups, and the results thereof are shown in FIG. 7.

[4] = tested on: acetylated tubulin in atrial and ventricular tissues; experiment: Acetylated tubulin in atrial and ventricular tissues in heart damage mimicking conditions (Tachycardia pacing); design: species or system Rabbit; details: compound in physiological solution, western blot, compared to vehicle (FIGS. 10 and 11)
Protocol: Male rabbits were prepared in the same manner as in Example 1, and the rabbits were divided into a normal group (Sham), a drug-untreated group (vehicle), and a drug-treated group (Compound).
After that, the heart was evaluated by the Langendorff experimental method as in 2-1) of 2) in Example 2. For the drug-treated group, the heart was treated with the drug by administering compound 43 (compound according to Synthesis Example 1) to physiological solution as in 2-2) of 2) in Example 2.
Then, the atria and the ventricles were separated, and then proteins were isolated from each tissue. The expression of acetylated tubulin was analyzed for each protein through western blot, so as to compare the expression levels between groups, and the results thereof are shown in FIGS. 10 and 11. * may mean P<0.05, ** may refer to P<0.01, and *** may represent less than P<0.001.

isolated rabbit heart = experiment: Langendorff evaluation of ventricular functions in heart damage mimicking conditions (Tachycardia pacing)
Description: The Langendorff test method was used to evaluate the therapeutic effect of the compound on heart damage. The Langendorff test method is known as a test method that helps to determine the direct effect of the compound on the heart in terms of efficacy and safety. In particular, the method is easy to measure actual cardiac contractility and heart rates by removing peripheral hemodynamic variables that may extracardially interfere in experimental animals, and has the advantage of being able to intensively investigate a correlation between chemical structure and pharmacological action using various doses of the compound.
(§1) The male rabbits were anesthetized by breathing, and the hearts were removed therefrom. After removing the connective tissues, the hearts were perfused with 37° C. physiological solution (modified KrebsHenseleit bicarbonate buffer; composition: 116 mM/L NaCl, 4.7 mM/L KCl, 1.1 mM/L MgSO4, 1.17 mM/L KH2PO4, 24.9 mM/L NaHCO3, 2.52 mM/L CaCl2), 8.32 mM/L glucose) saturated with 95% O2/5% CO2 under constant pressure perfusion, and electrodes were connected at the atrium and ventricle so as to confirm a stabilization state by measuring an electrocardiogram for one hour.
After confirming the stabilization state of the heart for one hour through an electrocardiogram, a heart damage stimulation with 50 Hz tachycardia pacing was applied for 30 minutes. After measuring the electrocardiogram of the atrium and ventricle, a test target compound (compound 43: the compound of […]) was administered to physiological solution, and the electrocardiogram was measured in one hour later. In order to check whether a drug effect is maintained even after the compound is removed from the physiological solution, the physiological solution containing the compound, in which the rabbit heart was immersed, was washed out, and the physiological solution without the compound was administered, so as to measure the electrocardiogram in one hour later.
The effect of the compound on improving ventricular functions was analyzed in ex vivo heart damage mimicking conditions (Tachycardia pacing), and the results thereof are shown in FIGS. 3 and 4 and Table 1. In above FIG. 4, ** on the graph may refer to P<0.01 when compared with the normal group(Sham), and ## may mean P<0.01 when compared with Tachycardia pacing (Comparative group, vehicle).

[5] = tested on: isolated heart of normal rabbits; experiment: Langendorff evaluation of heart safety (Q-T interval of ECG); design: species or system Rabbit; details: for Q-T interval: normal rabbit heart, ECG 30 minutes later, n = 6, mean ± standard error; for effect on QT interval compared to normal ECG (in words): dofetilide 0.3 μM and 1 μM, compound 43 1 μM (FIGS. 5 and 6)
Protocol: as §1
After confirming the stabilization state of the heart through the electrocardiogram for one hour, the compound was administered to the physiological solution, and the electrocardiogram was measured in 30 minutes later so as to analyze the Q-T interval.
Using dofetilide as a control drug, the effect of the compound according to the present disclosure (compound 43: compound of Synthesis Example 1) on the QT interval of ECG was confirmed in normal rabbits.
Rabbits were prepared under the same conditions as in 1) and divided into a normal group, a dofetilide-treated group, and a compound 43-treated group, after which the hearts of the rabbits were extracted according to the Langendorff experimental method in 2-2), so as to analyze the Q-T interval according to 2-3), and the results thereof are shown in FIGS. 5 and 6 and in Tables 2 and 3 below. In above FIGS. 5 and 6 and Tables 2 and 3, the Control may refer to a normal group, and all data values in Tables 2 and 3 are expressed as mean standard error.

O=C(N1CCS(=O)(=O)CC1)N(Cc1ccc(-c2nnc(C(F)F)o2)cn1)c1ccc(F)cc1 [Compound 295, N-((5-(5-(difluoromethyl)-1,3,4-oxadiazol-2-yl)pyridin-2-yl)methyl)-N-(4-fluorophenyl)thiomorpholine-4-carboxamide 1,1-dioxide]
concentration of acetyl tubulin in H9c2 cells [1]: increase the concentration of acetyl tubulin in H9c2 cells in a concentration-correlated manner

O=C(N1CCS(=O)(=O)CC1)N(Cc1ccc(-c2nnc(C(F)F)o2)cc1F)c1ccccc1 [Compound 40, N-(4-(5-(difluoromethyl)-1,3,4-oxadiazol-2-yl)-2-fluorobenzyl)-N-phenylthiomorpholine-4-carboxamide 1,1-dioxide]
concentration of acetyl tubulin in H9c2 cells [1]: increase the concentration of acetyl tubulin in H9c2 cells in a concentration-correlated manner

O=C(N1CCS(=O)(=O)CC1)N(Cc1ccc(-c2nnc(C(F)F)o2)cn1)c1cccc(Cl)c1 [Compound 239, N-(3-chlorophenyl)-N-((5-(5-(difluoromethyl)-1,3,4-oxadiazol-2-yl)pyridin-2-yl)methyl)thiomorpholine-4-carboxamide 1,1-dioxide]
concentration of acetyl tubulin in H9c2 cells [1]: increase the concentration of acetyl tubulin in H9c2 cells in a concentration-correlated manner

O=C(N1CCS(=O)(=O)CC1)N(Cc1ccc(-c2nnc(C(F)F)o2)cn1)c1ccccc1 [compound 43, N-((5-(5-(difluoromethyl)-1,3,4-oxadiazol-2-yl)pyridin-2-yl)methyl)-N-phenylthiomorpholine-4-carboxamide 1,1-dioxide]
Ca2+ transients [2]: Ca^2+ transients are recovered | expression of TGF-β in cardiac tissue [3]: reduced expression | expression of α-SMA in cardiac tissue [3]: reduced expression | expression of acetylated tubulin in atria and ventricles [4]: restored to that of the normal group (Sham) | concentration of acetyl tubulin in H9c2 cells [1]: increase the concentration of acetyl tubulin in H9c2 cells in a concentration-correlated manner | R-R interval, Average (isolated rabbit heart; 1 μM in physiological solution, ECG one hour later, after 50 Hz tachycardia pacing for 30 minutes): 240.8 ms | electrocardiogram (ventricular functions) (isolated rabbit heart; 1 μM, tachycardia pacing (FIG. 3)): improved to a degree of the normal group (Control) | cardioversion effect after the compound is removed (isolated rabbit heart; after wash out of 1 μM compound (FIG. 3)): maintained for at least one hour | R-R interval, Average, Wash out (isolated rabbit heart; one hour after compound washed out of physiological solution, after 50 Hz tachycardia pacing): 239.9 ms | Q-T interval ([5]; 1 μM): 125.4 ± 1.7 ms | effect on QT interval compared to normal ECG (in words) [5]: not affected

O=C(N1CCS(=O)(=O)CC1)N(Cc1ccc(-c2nnc(C(F)F)o2)cc1F)c1ccc(F)cc1 [Compound 285, N-(4-(5-(difluoromethyl)-1,3,4-oxadiazol-2-yl)-2-fluorobenzyl)-N-(4-fluorophenyl)thiomorpholine-4-carboxamide 1,1-dioxide]
concentration of acetyl tubulin in H9c2 cells [1]: increase the concentration of acetyl tubulin in H9c2 cells in a concentration-correlated manner

CN(CCOc1ccc(NS(C)(=O)=O)cc1)CCc1ccc(NS(C)(=O)=O)cc1 [Dofetilide, dofetilide]
Q-T interval ([5]; 0.3 μM): 199.2 ± 17.8 ms | Q-T interval ([5]; 1 μM): 205.4 ± 26.3 ms | effect on QT interval compared to normal ECG (in words) [5]: increased at both 0.3 μM and 1 μM

O=C(N1CCS(=O)(=O)CC1)N(Cc1ccc(-c2nnc(C(F)F)o2)cn1)c1cccc(F)c1 [Compound 296, N-((5-(5-(difluoromethyl)-1,3,4-oxadiazol-2-yl)pyridin-2-yl)methyl)-N-(3-fluorophenyl)thiomorpholine-4-carboxamide 1,1-dioxide]
concentration of acetyl tubulin in H9c2 cells [1]: increase the concentration of acetyl tubulin in H9c2 cells in a concentration-correlated manner

— US20250170137A1, “Compositions for preventing or treating heart failure (HF)” (CHONG KUN DANG PHARMACEUTICAL CORP., priority 2022, published 2025)
